Results: ChEMBL document CHEMBL1201862, “PubChem BioAssay data set” (2004)
Calls of active or inactive are those of the source.

How the values were obtained:
Interleukin-8 = Interleukin-8 (Homo sapiens, UniProt P10145); experiment: SAR analysis of tumor necrosis factor alpha (TNF-alpha) induced IL-8 secretion in MCF-7/NOD1 cells. [Related pubchem assays (depositor defined):AID1575, AID2250, AID2260]; type: functional, cell-based
HEK293 [1] = experiment: cells; conditions: Homo sapiens
Tumor necrosis factor = Tumor necrosis factor (Homo sapiens, UniProt P01375); experiment: analog potency on TNFa NF-kB signaling – cell-based, revised, SAR follow-up (AID 2337); type: functional
Tumor necrosis factor, sequence (P01375 whole entry): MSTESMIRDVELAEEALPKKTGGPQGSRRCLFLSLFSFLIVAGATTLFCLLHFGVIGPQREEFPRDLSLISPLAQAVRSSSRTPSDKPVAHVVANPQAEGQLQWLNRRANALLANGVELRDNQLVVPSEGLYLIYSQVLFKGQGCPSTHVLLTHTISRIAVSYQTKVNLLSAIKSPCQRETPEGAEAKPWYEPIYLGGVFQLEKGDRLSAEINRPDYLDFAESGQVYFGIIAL

HEK293 [2] = experiment: SAR analysis of compounds that are cytotoxic to HEK293 - Set 3. [Related pubchem assays (depositor defined):AID1575, AID1578, AID1848, AID1849, AID2001, AID2333, AID2334, AID2335, AID2337, AID2469]; type: functional, cell-based; conditions: Homo sapiens
Integrin alpha-4 = Integrin alpha-4 (Homo sapiens, UniProt P13612); experiment: allosteric modulators of alpha4 integrin VLA-4 – cell-based, LIBS antibody binding, flow cytometry, SAR follow-up (AID 488791); type: functional
Integrin alpha-4, sequence (P13612 whole entry): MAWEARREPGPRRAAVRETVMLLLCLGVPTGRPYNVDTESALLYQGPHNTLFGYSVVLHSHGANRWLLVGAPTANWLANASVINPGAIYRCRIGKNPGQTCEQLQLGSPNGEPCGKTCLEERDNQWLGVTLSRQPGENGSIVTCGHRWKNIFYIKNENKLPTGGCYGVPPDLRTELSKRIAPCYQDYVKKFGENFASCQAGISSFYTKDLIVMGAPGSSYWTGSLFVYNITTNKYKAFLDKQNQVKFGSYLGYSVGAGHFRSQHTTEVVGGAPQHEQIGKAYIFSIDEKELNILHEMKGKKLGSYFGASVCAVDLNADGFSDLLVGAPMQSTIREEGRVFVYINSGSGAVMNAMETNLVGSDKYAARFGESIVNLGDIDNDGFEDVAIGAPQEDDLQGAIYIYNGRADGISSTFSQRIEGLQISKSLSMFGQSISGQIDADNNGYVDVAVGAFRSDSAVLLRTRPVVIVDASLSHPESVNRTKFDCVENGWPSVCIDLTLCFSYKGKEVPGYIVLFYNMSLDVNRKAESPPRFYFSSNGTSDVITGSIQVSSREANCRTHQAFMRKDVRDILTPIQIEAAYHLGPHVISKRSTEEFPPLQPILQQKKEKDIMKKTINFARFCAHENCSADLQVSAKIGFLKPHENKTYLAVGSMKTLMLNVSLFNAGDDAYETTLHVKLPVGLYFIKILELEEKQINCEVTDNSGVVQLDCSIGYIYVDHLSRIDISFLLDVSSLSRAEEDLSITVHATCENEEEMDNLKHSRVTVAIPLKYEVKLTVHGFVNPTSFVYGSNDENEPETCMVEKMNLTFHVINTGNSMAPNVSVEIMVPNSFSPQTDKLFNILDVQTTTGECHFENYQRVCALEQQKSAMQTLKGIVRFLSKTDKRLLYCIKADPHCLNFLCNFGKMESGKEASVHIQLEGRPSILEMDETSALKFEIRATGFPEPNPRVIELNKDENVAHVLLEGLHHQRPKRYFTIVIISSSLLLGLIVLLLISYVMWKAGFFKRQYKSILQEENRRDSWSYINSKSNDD

[3] = biological target: T1, Short transient receptor potential channel 4 (Mus musculus, UniProt Q9QUQ5); experiment: potentiation of DAMGO-evoked TRPC4 calcium signal – cell-based, HEK293 TRPC4/mu-opioid, Fluo-4 calcium, EC20 DAMGO, dose response (AID 434941); type: functional
T1 sequence (Q9QUQ5 whole entry): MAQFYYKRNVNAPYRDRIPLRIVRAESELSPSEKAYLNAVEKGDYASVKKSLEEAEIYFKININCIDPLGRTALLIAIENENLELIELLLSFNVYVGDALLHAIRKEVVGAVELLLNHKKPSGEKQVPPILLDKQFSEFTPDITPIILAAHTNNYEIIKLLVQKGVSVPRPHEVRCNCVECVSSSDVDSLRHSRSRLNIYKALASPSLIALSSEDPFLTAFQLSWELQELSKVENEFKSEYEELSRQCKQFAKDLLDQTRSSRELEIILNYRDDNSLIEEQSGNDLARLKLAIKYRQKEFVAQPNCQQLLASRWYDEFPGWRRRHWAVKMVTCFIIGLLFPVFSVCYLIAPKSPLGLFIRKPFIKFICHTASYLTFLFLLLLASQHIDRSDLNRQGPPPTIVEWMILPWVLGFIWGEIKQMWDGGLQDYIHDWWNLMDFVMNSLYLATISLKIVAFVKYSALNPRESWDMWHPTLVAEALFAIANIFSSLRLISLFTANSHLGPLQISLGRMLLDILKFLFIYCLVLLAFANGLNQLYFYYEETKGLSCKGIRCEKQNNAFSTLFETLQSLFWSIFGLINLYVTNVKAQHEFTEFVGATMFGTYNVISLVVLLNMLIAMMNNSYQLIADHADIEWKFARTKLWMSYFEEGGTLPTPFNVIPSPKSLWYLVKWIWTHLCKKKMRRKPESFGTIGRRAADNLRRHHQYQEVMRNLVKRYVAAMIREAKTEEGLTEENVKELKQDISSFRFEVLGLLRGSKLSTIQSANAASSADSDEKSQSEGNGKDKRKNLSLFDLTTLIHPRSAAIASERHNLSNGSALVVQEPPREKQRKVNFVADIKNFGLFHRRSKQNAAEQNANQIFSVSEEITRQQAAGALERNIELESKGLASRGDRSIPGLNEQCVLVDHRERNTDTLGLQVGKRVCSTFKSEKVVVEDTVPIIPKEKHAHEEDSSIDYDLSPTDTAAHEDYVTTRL

[4] = biological target: T2, Alkaline phosphatase, tissue-nonspecific isozyme (Homo sapiens, UniProt P05186); experiment: potency against alkaline phosphatase TNAP – biochemical, luminescent, dose response, SAR follow-up (AID 1056)
T2 sequence (P05186 whole entry): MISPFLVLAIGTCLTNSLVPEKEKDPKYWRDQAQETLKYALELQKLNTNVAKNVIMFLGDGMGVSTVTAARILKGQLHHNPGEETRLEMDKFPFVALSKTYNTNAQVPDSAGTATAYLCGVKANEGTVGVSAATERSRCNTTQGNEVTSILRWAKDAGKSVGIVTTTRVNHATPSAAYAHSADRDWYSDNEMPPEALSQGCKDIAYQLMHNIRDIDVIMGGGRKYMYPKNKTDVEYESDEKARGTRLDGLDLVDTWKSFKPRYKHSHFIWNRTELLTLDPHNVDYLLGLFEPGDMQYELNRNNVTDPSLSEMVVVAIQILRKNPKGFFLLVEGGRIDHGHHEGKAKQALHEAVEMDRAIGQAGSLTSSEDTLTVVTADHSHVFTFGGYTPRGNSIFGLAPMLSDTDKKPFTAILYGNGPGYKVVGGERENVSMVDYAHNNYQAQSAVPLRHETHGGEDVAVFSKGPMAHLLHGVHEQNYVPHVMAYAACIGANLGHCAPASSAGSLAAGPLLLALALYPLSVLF

[5] = biological target: Glyceraldehyde-3-phosphate dehydrogenase (Homo sapiens, UniProt P04406)
Glyceraldehyde-3-phosphate dehydrogenase, sequence (P04406 whole entry): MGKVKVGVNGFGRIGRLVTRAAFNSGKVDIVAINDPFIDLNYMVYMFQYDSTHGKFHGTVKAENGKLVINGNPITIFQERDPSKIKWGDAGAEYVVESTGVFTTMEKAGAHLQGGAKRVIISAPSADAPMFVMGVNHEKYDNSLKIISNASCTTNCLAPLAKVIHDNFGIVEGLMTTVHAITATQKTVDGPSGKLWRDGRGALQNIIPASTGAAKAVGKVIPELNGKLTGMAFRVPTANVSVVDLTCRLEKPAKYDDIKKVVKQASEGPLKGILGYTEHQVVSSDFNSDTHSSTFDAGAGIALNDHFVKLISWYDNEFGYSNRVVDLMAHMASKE

[6] = biological target: Alkaline phosphatase, placental type (Homo sapiens, UniProt P05187); experiment: human placental alkaline phosphatase inhibition – biochemical, luminescence, confirmation (AID 1512); type: functional
Alkaline phosphatase, placental type, sequence (P05187 whole entry): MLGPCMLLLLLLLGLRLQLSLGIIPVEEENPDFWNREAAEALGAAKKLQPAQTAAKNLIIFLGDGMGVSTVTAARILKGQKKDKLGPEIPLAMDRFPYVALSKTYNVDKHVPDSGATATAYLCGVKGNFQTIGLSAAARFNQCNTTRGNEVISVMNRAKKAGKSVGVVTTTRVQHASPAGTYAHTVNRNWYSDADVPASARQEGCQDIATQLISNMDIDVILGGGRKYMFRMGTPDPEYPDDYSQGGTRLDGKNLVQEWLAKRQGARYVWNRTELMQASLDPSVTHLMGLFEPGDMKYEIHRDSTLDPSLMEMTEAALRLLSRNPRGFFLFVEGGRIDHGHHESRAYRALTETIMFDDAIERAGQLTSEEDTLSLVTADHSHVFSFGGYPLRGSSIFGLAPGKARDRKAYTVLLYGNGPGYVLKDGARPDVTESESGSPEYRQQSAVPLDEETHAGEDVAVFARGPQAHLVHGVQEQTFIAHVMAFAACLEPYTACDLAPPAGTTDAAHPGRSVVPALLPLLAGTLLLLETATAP

[7] = biological target: G-protein coupled receptor 55 (Homo sapiens, UniProt Q9Y2T6); experiment: inhibition of LPI-stimulated GPR55 beta-arrestin translocation – imaging, U2OS, beta-arrestin-GFP, LPI agonist, primary screen (AID 2013); type: functional;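 further: antagonist potency measured as reduced agonist-driven arrestin aggregation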
G-protein coupled receptor 55, sequence (Q9Y2T6 whole entry): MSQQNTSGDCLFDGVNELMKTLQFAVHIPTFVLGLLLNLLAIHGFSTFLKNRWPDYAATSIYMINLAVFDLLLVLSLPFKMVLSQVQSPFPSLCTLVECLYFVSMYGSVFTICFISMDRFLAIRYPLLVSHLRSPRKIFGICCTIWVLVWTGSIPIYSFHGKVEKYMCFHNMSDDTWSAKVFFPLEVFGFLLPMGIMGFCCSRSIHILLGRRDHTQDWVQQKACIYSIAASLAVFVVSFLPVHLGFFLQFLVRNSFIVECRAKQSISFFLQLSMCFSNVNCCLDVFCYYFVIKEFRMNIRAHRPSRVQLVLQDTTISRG

[8] = viability of uninfected HEp-2 cells – cell-based, HTS, cytotoxicity control for RSV inhibitor project, dose response (AID 2410); type: functional; conditions: human respiratory syncytial virus
[9] = biological target: DNA damage-inducible transcript 3 protein (Mus musculus, UniProt P35639); type: functional, Cricetulus griseus
DNA damage-inducible transcript 3 protein, sequence (P35639 whole entry): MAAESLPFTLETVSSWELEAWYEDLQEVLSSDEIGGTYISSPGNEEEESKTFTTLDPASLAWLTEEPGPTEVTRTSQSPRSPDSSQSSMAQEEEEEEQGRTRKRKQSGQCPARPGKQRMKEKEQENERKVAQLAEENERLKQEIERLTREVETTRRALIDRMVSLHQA

[10] = viability of HCT116 lacking mutant beta-catenin – cell-based, human colon tumor, dose response (AID 1045); type: functional;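 further: HCT116 colon tumor cells with beta catenin knocked out; cells exposed to compound for 60 hours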
[11] = viability of PTEN-deleted HCT116 cells – cell-based, HCT116 PTEN knockout, dose response (AID 1047); type: functional;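 further: HCT116 colon tumor cells with PTEN knocked out; cells exposed to compound for 60 hours before readout; potency for loss of cell viability measured by luminescence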
[12] = biological target: Induced myeloid leukemia cell differentiation protein Mcl-1 (Homo sapiens, UniProt Q07820); type: functional
Induced myeloid leukemia cell differentiation protein Mcl-1, sequence (Q07820 whole entry): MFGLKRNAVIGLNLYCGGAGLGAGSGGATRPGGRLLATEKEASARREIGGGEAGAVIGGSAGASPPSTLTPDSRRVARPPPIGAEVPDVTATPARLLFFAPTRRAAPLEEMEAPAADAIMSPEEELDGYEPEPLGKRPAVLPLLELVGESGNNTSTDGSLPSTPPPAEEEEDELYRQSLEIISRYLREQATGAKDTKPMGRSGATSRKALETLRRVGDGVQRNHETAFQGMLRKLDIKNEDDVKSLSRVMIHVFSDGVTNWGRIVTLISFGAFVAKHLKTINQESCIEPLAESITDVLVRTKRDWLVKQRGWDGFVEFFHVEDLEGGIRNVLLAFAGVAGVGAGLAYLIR

[13] = biological target: T3, Small ubiquitin-related modifier 1 (Homo sapiens, UniProt P63165); experiment: SUMO1 protein-protein binding blockers, potency – biochemical, FRET, dose response (AID 624383); type: functional; conditions: read-out: IC50_Mean
T3 sequence (P63165 whole entry): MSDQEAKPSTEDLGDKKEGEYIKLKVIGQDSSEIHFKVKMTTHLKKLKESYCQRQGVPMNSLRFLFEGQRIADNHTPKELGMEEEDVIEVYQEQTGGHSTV

[14] = biological target: T3, Small ubiquitin-related modifier 1; experiment: SUMO1 protein interaction blockers, potency – biochemical, fluorescence polarization, uHTS hits, dose response (AID 624382); type: functional; conditions: read-out: IC50_Mean
[15] = biological target: Cyclin-dependent kinase 5/CDK5 activator 1 (Homo sapiens, UniProt Q00535); experiment: blockade of human CDK5 activity – biochemical, cherry-picked samples, set 2, dose response (AID 504545)
Cyclin-dependent kinase 5/CDK5 activator 1, sequence (Q00535 whole entry): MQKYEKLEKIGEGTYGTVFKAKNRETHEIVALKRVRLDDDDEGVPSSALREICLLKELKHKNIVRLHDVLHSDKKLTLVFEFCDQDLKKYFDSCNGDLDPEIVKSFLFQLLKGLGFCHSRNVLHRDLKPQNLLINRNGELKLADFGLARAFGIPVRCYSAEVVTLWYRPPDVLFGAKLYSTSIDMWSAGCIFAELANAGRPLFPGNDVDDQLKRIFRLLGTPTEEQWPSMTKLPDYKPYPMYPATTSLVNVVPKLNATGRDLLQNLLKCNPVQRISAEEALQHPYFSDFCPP
Cyclin-dependent kinase 5/CDK5 activator 1, sequence (Q15078 whole entry, further chain): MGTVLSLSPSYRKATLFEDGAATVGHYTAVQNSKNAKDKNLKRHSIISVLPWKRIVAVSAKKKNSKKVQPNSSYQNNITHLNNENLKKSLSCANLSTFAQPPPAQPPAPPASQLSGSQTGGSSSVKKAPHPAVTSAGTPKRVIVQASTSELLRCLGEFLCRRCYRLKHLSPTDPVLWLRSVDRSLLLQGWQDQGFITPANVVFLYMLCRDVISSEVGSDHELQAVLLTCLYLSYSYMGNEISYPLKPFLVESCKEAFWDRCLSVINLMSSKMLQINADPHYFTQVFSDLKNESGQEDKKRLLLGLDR

[16] = biological target: Scavenger receptor class B member 1 (Mus musculus, UniProt Q61009); experiment: mouse SR-BI DiI-HDL uptake blockers – ldlA[mSR-BI] cells, fluorescence, cherry pick, dose response (AID 493194); type: functional, cell-based;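 further: cellular uptake of fluorescent DiI-labeled HDL measured as cell fluorescence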
Scavenger receptor class B member 1, sequence (Q61009 whole entry): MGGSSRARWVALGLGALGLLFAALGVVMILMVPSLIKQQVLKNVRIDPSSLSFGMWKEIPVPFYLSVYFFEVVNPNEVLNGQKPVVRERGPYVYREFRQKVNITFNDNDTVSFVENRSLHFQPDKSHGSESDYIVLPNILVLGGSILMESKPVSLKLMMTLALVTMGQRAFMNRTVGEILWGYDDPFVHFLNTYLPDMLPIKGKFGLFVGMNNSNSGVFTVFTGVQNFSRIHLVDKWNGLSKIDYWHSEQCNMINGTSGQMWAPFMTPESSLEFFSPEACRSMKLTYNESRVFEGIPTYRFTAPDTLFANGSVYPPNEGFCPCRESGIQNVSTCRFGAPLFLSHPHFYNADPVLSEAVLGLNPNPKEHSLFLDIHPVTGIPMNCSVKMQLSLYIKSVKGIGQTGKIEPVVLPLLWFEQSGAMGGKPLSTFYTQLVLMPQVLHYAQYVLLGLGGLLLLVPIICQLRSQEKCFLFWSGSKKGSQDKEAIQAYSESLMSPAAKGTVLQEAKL

cells = type: functional
[17] = THP-1 cell cytotoxicity, dose response, cytotoxicity control for non-replicating M. tuberculosis project (AID 489025); type: functional
[18] = Vero E6 cell cytotoxicity, dose response, cytotoxicity control for non-replicating M. tuberculosis project, secondary assay (AID 492998); type: functional, VeroE6; conditions: Vero C1008

Interleukin-8, sequence (P10145 whole entry): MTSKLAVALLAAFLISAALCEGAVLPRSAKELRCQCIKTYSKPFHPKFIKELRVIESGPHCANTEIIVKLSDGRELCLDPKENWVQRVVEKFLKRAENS

## Cc1ccc(S(=O)(=O)n2c(N)nc3cc(C)c(C)cc32)cc1
Interleukin-8
  IC50: > 5 µM (inactive)
HEK293 [1]
  IC50: > 20 µM (inactive)
Tumor necrosis factor
  IC50: > 20 µM (inactive)
HEK293 [2]
  IC50: > 20 µM (inactive)

## Cc1ccc(NC(=O)c2cc(N3C(=O)CCC3=O)ccc2N2CCOCC2)cc1
Integrin alpha-4
  EC50: 16.4 µM (active)

## Cc1cc(OCC(=O)NC2CCCCC2)ccc1Cl
[3]
  EC50: 1.88 µM (active)

## COc1ccccc1-c1nc(SCc2ccccc2F)n[nH]1
[4]
  IC50: 3.41 µM (active)
[5]
  IC50: > 100 µM (not active)
[6]
  IC50: > 100 µM (inactive)

## COc1ccc(-c2sc(Nc3ccccc3)n[n+]2-c2ccc(F)cc2)c(C)c1C
[7]
  IC50: 2.11 µM (active)
[8]
  CC50: 28.5 µM (active)

## Fc1cc(F)c2nc(Nc3nc4cc5c(cc4s3)OCO5)sc2c1
[9]
  Absolute IC50 (CHOP): 10 µM
[10]
  EC50: 17.3 µM (active)
[11]
  EC50: 18.6 µM (active)
[12]
  IC50: 1.12 µM (active)
[13]
  IC50: 1.53 µM (active)
[14]
  IC50: > 66.6 µM (inactive)

## Clc1cncc(Cl)c1N/N=C/c1ccncc1
[15]
  AC50: 52.8 µM (active)

## Cc1ccc2oc(-c3cccc(NC(=O)c4cc(-n5cnnc5)ccc4Cl)c3)nc2c1
[16]
  AC50: 8.18 µM (active)

## O=c1c2ccccc2nc2cc(O)c(-c3ccccc3)nn12
cells
  IC50: 4.34 µM (active)
[17]
  CC50: > 40 µM (active)
[18]
  CC50: 15.4 µM (active)
